Results as given in article PMC6021034, “Novel FFA1 (GPR40) agonists containing spirocyclic periphery: polar azine periphery as a driver of potency” (Journal of Enzyme Inhibition and Medicinal Chemistry, 2016).
Read-outs that look alike come from different tables or passages of the source.

Key:
human GPR40 = human GPR40 (Homo sapiens, UniProt O14842); test: Calcium flux (FLIPR, Fluo-8) agonist assay in CHO cells stably expressing human GPR40; format: cell-based; settings: for % FFA1 activation at 5 μM: relative to GPR40 activation by 20 μM of GW9509, n = 2
Protocol: Determination of agonistic activity of compounds against FFA1 (GPR40) receptor
CHO cells stably expressing human GPR40 (stable CHO-GPR40 line created at Enamine Ltd., Kyiv, Ukraine) were seeded (12 500 cells/well) into 384-well black-wall, clear-bottom microtiter plates 24 h prior to assay. Cells were loaded for 1 h with fluorescent calcium dye (Fluo-8 Calcium Assay kit, Abcam, ab112129, Cambridge, UK) and tested using fluorometric imaging plate reader (FLIPR Tetra® High Throughput Cellular Screening System, Molecular Devices Corp., Sunnyvale, CA). Maximum change in fluorescence over base line was used to determine agonist response. A potent and selective agonist for FFA1 (GPR40) GW9508 (Selleckchem, S8014) was tested with the test compounds as a positive control. Concentration response curve data were fitted using Molecular Devices ScreenWorks® System Control Software (Molecular Devices). The half-maximal effective concentration was determined from these curves plotted in “% FFA1 activation − log[drug]” coordinates and % maximum efficacy was related to that of the reference compounds GW9508.

FFA1 [1] = system: FFA1; design: method as in PMID 24900210; settings: cited from earlier work
FFA1 [2] = settings: cited from earlier work
[3] = dose-response (% FFA1 activation) mode, read-out: EC50

Chain of human GPR40 (O14842 whole entry): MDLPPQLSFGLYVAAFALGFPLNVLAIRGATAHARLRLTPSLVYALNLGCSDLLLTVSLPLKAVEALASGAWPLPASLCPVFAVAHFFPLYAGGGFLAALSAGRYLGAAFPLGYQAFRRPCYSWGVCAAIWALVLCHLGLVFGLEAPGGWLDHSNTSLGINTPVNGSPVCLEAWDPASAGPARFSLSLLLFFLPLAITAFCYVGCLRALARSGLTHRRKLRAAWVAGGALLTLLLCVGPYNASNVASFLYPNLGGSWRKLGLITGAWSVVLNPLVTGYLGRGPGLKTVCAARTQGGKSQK

Compound	% FFA1 activation at 5 μM (human GPR40) [%]	EC50 (human GPR40; [3]) [µM]	further results
Cl.Cl.O=C(O)CCc1ccc(OCc2ccc(CN3CCC4(CC3)CC(CC(=O)NCc3cccnc3)CCO4)cc2)cc1 (stereo not shown) [Compound 4i, 3-[4-({4-[(4-{2-Oxo-2-[(pyridin-3-ylmethyl)amino]ethyl}-1-oxa-9-azaspiro[5.5]undec-9-yl)methyl]benzyl}oxy)phenyl]propanoic acid dihydrochloride]	11.6	> 20	–
Cl.Cl.O=C(O)CCc1ccc(OCc2ccc(CN3CCC4(CC3)CC(Oc3ccccn3)CCO4)cc2)cc1 (stereo not shown) [Compound 4c, 3-{4-[(4-{[4-(Pyridin-2-yloxy)-1-oxa-9-azaspiro[5.5]undec-9-yl]methyl}benzyl)oxy]phenyl}propanoic acid dihydrochloride]	61.4	–	Emax (human GPR40; CHO, maximum efficacy relative to GPR40 activation by 20 μM of GW9509, n = 2): 61%; EC50 (human GPR40; Table 2, compounds investigated in this work, read-out: FFA1 EC50): 0.9 µM
Cl.Cl.O=C(O)CCc1ccc(OCc2ccc(CN3CCC4(CC3)CC(Oc3ccncc3)CCO4)cc2)cc1 (stereo not shown) [Compound 4d, 3-{4-[(4-{[4-(Pyridin-4-yloxy)-1-oxa-9-azaspiro[5.5]undec-9-yl]methyl}benzyl)oxy]phenyl}propanoic acid dihydrochloride]	13.6	> 20	–
Cc1cc(OCCCS(C)(=O)=O)cc(C)c1-c1cccc(COc2ccc3c(c2)OC[C@H]3CC(=O)O)c1 [TAK-875, fasiglifam]	–	–	EC50 (FFA1 [1]): 0.014 µM
Cl.Cl.O=C(O)CCc1ccc(OCc2ccc(CN3CCC4(CC3)CC(Oc3ncccn3)CCO4)cc2)cc1 (stereo not shown) [Compound 4b, 3-{4-[(4-{[4-(Pyrimidin-2-yloxy)-1-oxa-9-azaspiro[5.5]undec-9-yl]methyl}benzyl)oxy]phenyl} propanoic aciddihydrochloride]	80.0	1.62	% Efficacy (human GPR40; maximum efficacy relative to GPR40 activation by 20 μM of GW9509, n = 2): 80%
O=C(O)CCc1ccc(OCc2ccc(CN3CCC4(CCCCO4)CC3)cc2)cc1 [Compound 7]	–	–	EC50 (FFA1 [2]; reported earlier): > 20 µM; FFA1 agonist activity (in words) (FFA1 [2]; tested earlier): inactive
CNC(=O)CC1CCOC2(CCN(Cc3ccc(COc4ccc(CCC(=O)O)cc4)cc3)CC2)C1.Cl (stereo not shown) [Compound 4g, 3-(4-{[4-({4-[2-(Methylamino)-2-oxoethyl]-1-oxa-9-azaspiro[5.5]undec-9-yl}methyl)benzyl]oxy}phenyl)propanoic acid hydrochloride]	9.9	> 20	–
Cl.Cl.O=C(O)CCc1ccc(OCc2ccc(CN3CCC4(CC3)CC(N3CCOCC3)CCO4)cc2)cc1 (stereo not shown) [Compound 4f, 3-[4-({4-[(4-Morpholin-4-yl-1-oxa-9-azaspiro[5.5]undec-9-yl)methyl]benzyl}oxy)phenyl]propanoic acid dihydrochloride]	10.2	> 20	–
Cl.Cl.O=C(O)CCc1ccc(OCc2ccc(CN3CCC4(CC3)CC(N3CCCC3)CCO4)cc2)cc1 (stereo not shown) [Compound 4e, 3-[4-({4-[(4-Pyrrolidin-1-yl-1-oxa-9-azaspiro[5.5]undec-9-yl)methyl]benzyl}oxy)phenyl]propanoic acid dihydrochloride]	9.1	> 20	–
3-{4-[(4-{[4-(Pyrazin-2-yloxy)-1-oxa-9-azaspiro[5.5]undec-9-yl]methyl}benzyl)oxy]phenyl}propanoic acid dihydrochloride [Compound 4a]	32.5	–	–
Cl.Cl.O=C(O)CCc1ccc(OCc2ccc(CN3CCC4(CC3)CC(CC(=O)NCc3ccncc3)CCO4)cc2)cc1 (stereo not shown) [Compound 4h, 3-[4-({4-[(4-{2-Oxo-2-[(pyridin-4-ylmethyl)amino]ethyl}-1-oxa-9-azaspiro[5.5]undec-9-yl)methyl]benzyl}oxy)phenyl]propanoic acid dihydrochloride]	10.0	> 20	–
